We go through 3 compounds from ChEMBL document CHEMBL4842340, “Development of Cagrilintide, a Long-Acting Amylin Analogue” (J Med Chem, 2021).

Converted amounts (≈) assume the structure as drawn. *1 amine or outer side, *2 acyl side, *3 side chain or, on linkers, in order; H or OH if unused. Where a SMILES comes first, the peptide text is derived from it. Bridges are numbered along the chain shown (N, C = ends). [ ]: non-standard residue; d: D form. The star is where a group is joined. C20 diacid = O=C(O)CCCCCCCCCCCCCCCCCCC(=O)*; γGlu = O=C(O)[C@H](CCC(=O)[*:2])N[*:1]; AEEA = NCCOCCOCC(=O)O

One may read the IC50 as the concentration needed to halve the response being measured. One may read the solubility as the dissolved amount per volume that the medium holds. The term EC50 denotes the midpoint of the concentration-response curve.

The nature of series [1]: Displacement of [125I]-amylin from rat AMY3R (CTR+RAMP3) expressed in BHK-13 cells measured after 120 mins by scintillation proximity assay. Format: cell-based. (Loss of bound radioactivity is the signal in a displacement assay; it reports binding, not function.)
Series [2] has as its target Insulin (Homo sapiens) (UniProt P01308). Kind of series: Effect on insulin (unknown origin) amyloid fibril formation assessed as peptide recovery in glycyl-glycine buffer at pH 4 measured after 45 hrs by thioflavin-T fluorescence assay relative to control. The arrangement: concentration or dose not given beside the values.
The species entered for series [3] is Homo sapiens. The series can be described thus: Ratio of IC50 for displacement of [125I]-calcitonin from human calcitonin receptor expressed in tk-ts 13 cells to IC50 for displacement of [125I]-amylin from human AMY3R (CTR+RAMP3) expressed in BHK-13 cells. Format: cell-based.
Series [4] in a line: Solubility of the compound in lactate at pH 5 by UPLC analysis. Format: physicochemical. The note with it: lactate buffer.
Series [5] addresses Insulin (Homo sapiens) (UniProt P01308). The series can be described thus: Effect on insulin (unknown origin) amyloid fibril formation assessed as lag time in glycyl-glycine buffer at pH 4 measured after 45 hrs by thioflavin-T fluorescence assay.
Series [6] is filed under the species Rattus norvegicus. Kind of series: Ratio of EC50 for rat calcitonin receptor expressed in BHK-13 cells to EC50 for rat AMY3R (CT+RAMP3) expressed in tk-ts13 cells. Format: cell-based.
The nature of series [7]: Displacement of [125I]-calcitonin from rat calcitonin receptor expressed in tk-ts 13 cells measured after 120 mins by scintillation proximity assay. Format: cell-based. The note with it: tk-ts13.
Series [8] can be described thus: Agonist activity at human AMY3R (CT+RAMP3) expressed in Hollex1 cells incubated for 3 hrs by luminescence assay. The note with it: Hollex1, 3 h. Type of series: cell-based.
Series [9] is described as follows: Displacement of [125I]-amylin from human AMY3R (CTR+RAMP3) expressed in BHK-13 cells measured after 120 mins by scintillation proximity assay. Type of series: cell-based.
Series [10] concerns Rattus norvegicus. The series can be described thus: Reduction in food intake in Sprague-Dawley rat at 3 nmol/kg, sc administered as single dose measured upto 24 hrs relative to control. The arrangement: scale not given: the % may be the effect or the level left. Format: functional. The note with it: time hrs <=24.
Series [11] can be described thus: Solubility of the compound in bis-tris propane at pH 7.5 by UPLC analysis. Type of series: physicochemical. The note with it: bis-tris propane buffer.
Series [12] is described as follows: Agonist activity at rat calcitonin receptor expressed in BHK-13 cells assessed as increase in intracellular cAMP concentration incubated for 25 mins by CRE luciferase reporter gene assay. Type of series: cell-based. The note with it: BHK-13, 25 min. (In general: A reporter such as luciferase makes a cellular process visible.)
The nature of series [13]: Solubility of the compound in lactate at pH 4 by UPLC analysis. Type of series: physicochemical. To be noted: lactate buffer.
The test system of series [14] is Rattus norvegicus. Kind of series: Reduction in food intake in Sprague-Dawley rat at 3 nmol/kg, sc administered as single dose measured after 24 to 48 hrs relative to control. Type of series: functional. The arrangement: scale not given: the % may be the effect or the level left. To be noted: time 24-48 hrs.
The nature of series [15]: Agonist activity at human calcitonin receptor expressed in BHK570 cells assessed as increase in intracellular cAMP concentration incubated for 3 hrs in absence of albumin by CRE luciferase reporter gene assay. Format: cell-based. The note with it: BHK570, 3 h.
Series [16] is described as follows: Agonist activity at rat AMY3R (CT+RAMP3) expressed in tk-ts13 cells assessed as increase in intracellular cAMP level incuabted for 25 mins by CRE luciferase reporter gene assay. Format: cell-based. To be noted: tk-ts13, 25 min. (In general: Cyclic AMP is a second messenger, typically raised through Gs and lowered through Gi signalling.)
A short description of series [17]: Solubility of the compound in bis-tris propane at pH 6 by UPLC analysis. To be noted: bis-tris propane buffer. Type of series: physicochemical.
The nature of series [18]: Displacement of [125I]-calcitonin from human calcitonin receptor expressed in tk-ts 13 cells measured after 120 mins by scintillation proximity assay. Format: cell-based. The note with it: tk-ts13.
The species named for series [19] is Homo sapiens. Kind of series: Ratio of EC50 for human calcitonin receptor expressed in BHK570 cells to EC50 for human AMY3R (CT+RAMP3) expressed in Hollex1 cells. Format: cell-based.
The species entered for series [20] is Rattus norvegicus. The series can be described thus: Ratio of IC50 for displacement of [125I]-calcitonin from rat calcitonin receptor expressed in tk-ts 13 cells to IC50 for displacement of [125I]-amylin from rat AMY3R (CTR+RAMP3) expressed in BHK-13 cells. Format: cell-based.
Series [21] in a line: Solubility of the compound in lactate at pH 3 by UPLC analysis. Format: physicochemical. The note with it: lactate buffer.
Series [22] in a line: Solubility of the compound in bis-tris propane at pH 8 by UPLC analysis. Format: physicochemical. To be noted: bis-tris propane buffer.
Series [23] can be described thus: Solubility of the compound in bis-tris propane at pH 7 by UPLC analysis. Format: physicochemical. To be noted: bis-tris propane buffer.
Series [24] can be described thus: Solubility of the compound in bis-tris propane at pH 6.5 by UPLC analysis. Format: physicochemical. To be noted: bis-tris propane buffer.

Sequence of Insulin (Homo sapiens) (P01308 whole entry): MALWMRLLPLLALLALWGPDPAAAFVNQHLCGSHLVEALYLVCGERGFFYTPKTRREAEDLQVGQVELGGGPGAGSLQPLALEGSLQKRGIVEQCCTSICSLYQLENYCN

As for `CC[C@H](C)[C@H](NC(=O)[C@@H]1CCCN1C(=O)CNC(=O)[C@H](Cc1ccccc1)NC(=O)[C@H](CC(N)=O)NC(=O)[C@H](CC(N)=O)NC(=O)[C@H](CO)NC(=O)[C@H](CO)NC(=O)[C@H](CCCNC(=N)N)NC(=O)[C@H](Cc1cnc[nH]1)NC(=O)[C@H](CC(C)C)NC(=O)[C@H](Cc1ccccc1)NC(=O)[C@H](CCC(=O)O)NC(=O)[C@H](C)NC(=O)[C@H](CC(C)C)NC(=O)[C@H](CCCNC(=N)N)NC(=O)[C@H](CCC(N)=O)NC(=O)[C@@H](NC(=O)[C@H](C)NC(=O)[C@@H]1CSSC[C@H](NC(=O)[C@H](CCCCN)NC(=O)[C@@H](CCCNC(=N)N)NC(=O)[C@@H](CCCNC(=N)N)NC(=O)COCCOCCNC(=O)COCCOCCNC(=O)CC[C@H](NC(=O)CCCCCCCCCCCCCCCCCCC(=O)O)C(=O)O)C(=O)N[C@@H](CC(N)=O)C(=O)N[C@@H]([C@@H](C)O)C(=O)N[C@@H](C)C(=O)N[C@@H]([C@@H](C)O)C(=O)N1)[C@@H](C)O)C(=O)N[C@@H](CC(C)C)C(=O)N1CCC[C@H]1C(=O)N1CCC[C@H]1C(=O)N[C@H](C(=O)N[C@@H](CC(N)=O)C(=O)N[C@H](C(=O)NCC(=O)N[C@@H](CO)C(=O)N[C@@H](CC(N)=O)C(=O)N[C@H](C(=O)N[C@@H](Cc1ccc(O)cc1)C(N)=O)[C@@H](C)O)C(C)C)[C@@H](C)O` ({C20 diacid-γGlu-AEEA-AEEA}-[dR][dR]KCNTATCATQRLAEFLHRSSNNFGPILPPTNVGSNTY-NH2; disulfide 4-9), the IC50 came to 0.03 nM in series [1], 0.156 nM in [7], 0.052 nM in series [9] and 0.085 nM in [18]. Further, the Activity in [2] turned out to be 87%; in [10] it was 24%; in series [14], 0%. Moreover, the results for the Ratio IC50 in series [3] and in series [20] were 2 and 5, respectively. Further, the solubility in series [4], in series [11], in series [13], in [17], in [21] and in [22] was 200 µM (≈ 1020 µg/mL) in each case. In series [5], the TIME amounted to 45 h. In addition, the Ratio EC50 in series [6] came to 14; in series [19], 8. In addition, the EC50 came out at 0.078 nM in series [8], 1.89 nM in [12], 0.608 nM in series [15] and 0.132 nM in series [16].

For `CC[C@H](C)[C@H](NC(=O)[C@@H]1CCCN1C(=O)CNC(=O)[C@H](Cc1ccccc1)NC(=O)[C@H](CC(N)=O)NC(=O)[C@H](CC(N)=O)NC(=O)[C@H](CO)NC(=O)[C@H](CO)NC(=O)[C@H](Cc1cnc[nH]1)NC(=O)[C@H](Cc1cnc[nH]1)NC(=O)[C@H](CC(C)C)NC(=O)[C@H](Cc1ccccc1)NC(=O)[C@H](CCC(=O)O)NC(=O)[C@H](C)NC(=O)[C@H](CC(C)C)NC(=O)[C@H](CCCNC(=N)N)NC(=O)[C@H](CCC(N)=O)NC(=O)[C@@H](NC(=O)[C@H](C)NC(=O)[C@@H]1CSSC[C@H](NC(=O)CC[C@H](NC(=O)CCCCCCCCCCCCCCCCCCC(=O)O)C(=O)O)C(=O)N[C@@H](CC(N)=O)C(=O)N[C@@H]([C@@H](C)O)C(=O)N[C@@H](C)C(=O)N[C@@H]([C@@H](C)O)C(=O)N1)[C@@H](C)O)C(=O)N[C@@H](CC(C)C)C(=O)N1CCC[C@H]1C(=O)N1CCC[C@H]1C(=O)N[C@H](C(=O)N[C@@H](CC(N)=O)C(=O)N[C@H](C(=O)NCC(=O)N[C@@H](CO)C(=O)N[C@@H](CC(N)=O)C(=O)N[C@H](C(=O)N[C@@H](Cc1ccc(O)cc1)C(N)=O)[C@@H](C)O)C(C)C)[C@@H](C)O` ({C20 diacid-γGlu}-CNTATCATQRLAEFLHHSSNNFGPILPPTNVGSNTY-NH2; disulfide 1-6), the concentration for half-maximal inhibition (IC50) came out at 0.182 nM in series [1], 0.93 nM in [7], 1.35 nM in series [9] and 0.469 nM in [18]. The Activity in series [2] is 0%; in series [10], 39%; in [14], 36%. The values for the Ratio IC50 in [3] and in series [20] were 0.3 and 5, respectively. For the same compound, the solubility in [4], in series [11], in series [13], in series [17], in series [23] and in series [24] was 200 µM (≈ 866 µg/mL) in each case. In addition, the solubility in series [21] and in [22] was 200 µM (≈ 866 µg/mL) each time. The TIME in series [5] came out at 9 h. Also, the concentration for a half-maximal effect (EC50) in series [8] is 0.125 nM; in series [15] it was 0.117 nM. The Ratio EC50 in series [19] is 1.

Regarding `CC[C@H](C)[C@H](NC(=O)[C@@H]1CCCN1C(=O)CNC(=O)[C@H](Cc1ccccc1)NC(=O)[C@H](CC(N)=O)NC(=O)[C@H](CC(N)=O)NC(=O)[C@H](CO)NC(=O)[C@H](CO)NC(=O)[C@H](Cc1c[nH]cn1)NC(=O)[C@H](Cc1cnc[nH]1)NC(=O)[C@H](CC(C)C)NC(=O)[C@H](Cc1ccccc1)NC(=O)[C@H](CCC(=O)O)NC(=O)[C@H](C)NC(=O)[C@H](CC(C)C)NC(=O)[C@H](CCCNC(=N)N)NC(=O)[C@H](CCC(N)=O)NC(=O)[C@@H](NC(=O)[C@H](C)NC(=O)[C@@H]1CSSC[C@H](NC(=O)[C@H](Cc2cnc[nH]2)NC(=O)CC[C@H](NC(=O)CCCCCCCCCCCCCCCCCCC(=O)O)C(=O)O)C(=O)N[C@@H](CC(N)=O)C(=O)N[C@@H]([C@@H](C)O)C(=O)N[C@@H](C)C(=O)N[C@@H]([C@@H](C)O)C(=O)N1)[C@@H](C)O)C(=O)N[C@@H](CC(C)C)C(=O)N1CCC[C@H]1C(=O)N1CCC[C@H]1C(=O)N[C@H](C(=O)N[C@@H](CC(N)=O)C(=O)N[C@H](C(=O)NCC(=O)N[C@@H](CO)C(=O)N[C@@H](CC(N)=O)C(=O)N[C@H](C(=O)N1CCC[C@H]1C(N)=O)[C@@H](C)O)C(C)C)[C@@H](C)O` ({C20 diacid-γGlu}-HCNTATCATQRLAEFLHHSSNNFGPILPPTNVGSNTP-NH2; disulfide 2-7), the concentration for half-maximal inhibition (IC50) amounted to 0.074 nM in [1], 0.134 nM in series [7], 0.293 nM in series [9] and 0.264 nM in [18]. In addition, the Activity in [2] amounted to 100%; in series [10], 68%; in series [14] it was 67%. Besides, the Ratio IC50 in [3] is 1; in [20] it was 2. In addition, the solubility in series [4], in [11], in [13], in [17], in series [23] and in series [24] was 200 µM (≈ 880 µg/mL) throughout. Also, the solubility in [21] and in series [22] was 200 µM (≈ 880 µg/mL) throughout. The TIME in series [5] worked out at 26 h. For the same compound, the Ratio EC50 in series [6] and in series [19] was 1 each time. In addition, the EC50 is 0.091 nM in series [8], 0.109 nM in series [12], 0.067 nM in series [15] and 0.121 nM in series [16].
